Reference: patent publication US20240199623A1 (ILDONG PHARMACEUTICAL CO., LTD., priority 2020, published 2024)

Biological target: human wild type-CFTR (Homo sapiens, UniProt P13569)
Assay: Cell-based YFP assay
Parameters: expressed in transfected cells; host or cells: CHO-K1 (Chinese hamster ovary)
Settings: CHO-K1 cells expressing human wild type-CFTR and YFP-H148Q/I152L; forskolin 20 μM = 100% activity; read-out: Cell-based YFP Assay (EC50) Concentration Range
Experimental: Forskolin (Tocris cat. #1099), Dimethyl sulfoxide (Sigma cat. #D4540), FLUO star Omega microplate reader (BMG Labtech, Ortenberg, Germany), MARS Data Analysis Software (BMG Labtech), GraphPad Prism 5 (GraphPad Software, Inc.) Chinese hamster ovary (CHO-K1) cells expressing human wild type-CFTR and halide sensor YFP-H148Q/I152L were constructed and grown in Dulbecco's modified Eagle's medium (DMEM) supplemented with 10% FBS, 2 mM glutamine, 100 units/ml penicillin and 100 μg/ml streptomycin. Chinese hamster ovary (CHO-K1) cells expressing human wild type-CFTR and halide sensor YFP-H148Q/I152L were seeded in 96-well microplate with 2×10^4 cells/well and incubated in 37° C., 48 hours. Then, each well was washed 3 times with PBS and 100 μL PBS was added in each well. […] YFP fluorescence signal affected by I^− ion influx through CFTR channel was measured in 37° C., FLUO star Omega microplate reader according to the following steps: • i) basal 2 seconds; • ii) 140 mM I^− solution 100 μL addition to each well; • iii) YFP fluorescence signal measurement start after 6 seconds; and • iv) following 14 seconds signal detection in every 0.4 seconds periods. […] Experiments were performed in triplicates and the data was averaged. EC50 values were calculated with MARS Data Analysis Software (BMG Labtech) and GraphPad Prism 5.

Chain of human wild type-CFTR (P13569 whole entry): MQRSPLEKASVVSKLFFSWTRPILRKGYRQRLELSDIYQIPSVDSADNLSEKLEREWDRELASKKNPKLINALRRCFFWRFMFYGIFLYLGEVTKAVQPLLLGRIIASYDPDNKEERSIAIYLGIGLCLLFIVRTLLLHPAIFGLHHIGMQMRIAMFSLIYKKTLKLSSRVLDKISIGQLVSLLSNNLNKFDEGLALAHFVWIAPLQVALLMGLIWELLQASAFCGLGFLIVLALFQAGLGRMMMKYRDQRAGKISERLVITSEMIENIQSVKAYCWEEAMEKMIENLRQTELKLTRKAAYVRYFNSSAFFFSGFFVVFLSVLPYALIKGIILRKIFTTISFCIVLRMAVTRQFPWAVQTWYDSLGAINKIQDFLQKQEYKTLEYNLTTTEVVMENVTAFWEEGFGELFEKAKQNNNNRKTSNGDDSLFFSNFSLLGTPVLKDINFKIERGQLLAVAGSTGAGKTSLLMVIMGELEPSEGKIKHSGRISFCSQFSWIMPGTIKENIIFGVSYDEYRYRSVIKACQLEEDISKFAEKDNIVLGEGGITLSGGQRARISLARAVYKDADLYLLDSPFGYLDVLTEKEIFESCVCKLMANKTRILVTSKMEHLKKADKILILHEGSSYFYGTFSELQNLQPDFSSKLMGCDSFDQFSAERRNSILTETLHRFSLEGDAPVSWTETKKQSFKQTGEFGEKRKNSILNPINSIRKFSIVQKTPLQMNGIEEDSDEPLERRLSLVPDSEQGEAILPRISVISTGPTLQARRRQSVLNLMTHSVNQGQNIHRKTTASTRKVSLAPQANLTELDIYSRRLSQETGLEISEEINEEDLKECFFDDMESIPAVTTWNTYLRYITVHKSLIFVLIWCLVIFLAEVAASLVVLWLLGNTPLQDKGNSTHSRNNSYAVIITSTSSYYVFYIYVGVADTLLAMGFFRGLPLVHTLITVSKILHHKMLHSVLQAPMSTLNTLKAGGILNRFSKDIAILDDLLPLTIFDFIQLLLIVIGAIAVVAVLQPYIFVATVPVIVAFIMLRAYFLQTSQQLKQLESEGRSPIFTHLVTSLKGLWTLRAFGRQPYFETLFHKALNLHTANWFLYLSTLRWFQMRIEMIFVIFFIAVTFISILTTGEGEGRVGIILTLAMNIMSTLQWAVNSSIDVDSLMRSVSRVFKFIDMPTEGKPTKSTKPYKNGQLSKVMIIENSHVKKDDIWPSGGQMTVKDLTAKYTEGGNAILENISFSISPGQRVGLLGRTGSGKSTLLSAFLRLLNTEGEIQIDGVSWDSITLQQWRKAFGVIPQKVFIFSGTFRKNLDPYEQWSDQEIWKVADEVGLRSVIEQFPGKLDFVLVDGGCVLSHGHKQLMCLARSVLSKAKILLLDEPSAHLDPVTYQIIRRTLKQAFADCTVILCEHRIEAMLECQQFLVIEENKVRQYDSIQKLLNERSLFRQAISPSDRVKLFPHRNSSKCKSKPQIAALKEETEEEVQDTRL

EC50 | SMILES
≥ 2000 nM | COc1ccc(-c2ccnc3cc(C(=O)NC45CC(C(=O)N6CCN(C)CC6)(C4)C5)nn23)cc1OC [Compound 123, 7-(3,4-dimethoxyphenyl)-N-(3-(4-methylpiperazine-1-carbonyl)bicyclo[1.1.1]pentan-1-yl) pyrazolo[1,5-a]pyrimidine-2-carboxamide]
< 200 nM | COc1ccc(-c2ccnc3cc(C(=O)Nc4ccc(C(=O)N5CCN(C)CC5)cn4)nn23)cc1OC [Compound 124, 7-(3,4-dimethoxyphenyl)-N-(5-(4-methylpiperazine-1-carbonyl)pyridin-2-yl)pyrazolo[1,5-a] pyrimidine-2-carboxamide]
< 200 nM | COc1ccc(-c2ccnc3cc(C(=O)Nc4ccc(C(=O)N5CCN(C)CC5)cc4C)nn23)cc1OC [Compound 128, 7-(3,4-dimethoxyphenyl)-N-(2-methyl-4-(4-methylpiperazine-1-carbonyl)phenyl)pyrazolo [1,5-a]pyrimidine-2-carboxamide]
< 200 nM | COc1ccc(-c2ccnc3cc(C(=O)NC(=Cc4ccccc4)C(=O)N4CCN(C)CC4)nn23)cc1OC [Compound 134, 7-(3,4-dimethoxyphenyl)-N-(3-(4-methylpiperazin-1-yl)-3-oxo-1-phenylprop-1-en-2-yl)pyrazolo[1,5-a] pyrimidine-2-carboxamide]
≥ 2000 nM | COc1ccc(-c2ccnc3cc(C(=O)NC45CC(NC(=O)N6CCOCC6)(C4)C5)nn23)cc1OC [Compound 138, N-(3-(7-(3,4-dimethoxyphenyl)pyrazolo[1,5-a]pyrimidine-2-carboxamido)bicyclo [1.1.1]pentan-1-yl)morpholine-4-carboxamide]
≥ 2000 nM | COc1ccc(-c2ccnc3cc(C(=O)N4CC[C@H](O)C4)nn23)cc1OC [Compound 148, (S)-(7-(3,4-dimethoxyphenyl)pyrazolo[1,5-a]pyrimidin-2-yl)(3-hydroxypyrrolidin-1-yl)methanone]
≥ 2000 nM | COc1ccc(-c2ccnc3cc(C(=O)N4CC[C@@H](O)C4)nn23)cc1OC [Compound 150, (R)-(7-(3,4-dimethoxyphenyl)pyrazolo[1,5-a]pyrimidin-2-yl)(3-hydroxypyrrolidin-1-yl)methanone]
200 to 2000 nM | COc1ccc(-c2ccnc3cc(C(=O)N4CCN(c5ccccc5)CC4)nn23)cc1OC [Compound 152, (7-(3,4-dimethoxyphenyl)pyrazolo[1,5-a]pyrimidin-2-yl)(4-phenylpiperazin-1-yl)methanone]
200 to 2000 nM | COc1ccc(-c2ccnc3cc(C(=O)N4CCN(c5ccccn5)CC4)nn23)cc1OC [Compound 153, (7-(3,4-dimethoxyphenyl)pyrazolo[1,5-a]pyrimidin-2-yl)(4-(pyridin-2-yl)piperazin-1-yl)methanone]
200 to 2000 nM | COc1ccc(-c2ccnc3cc(C(=O)N4CCN(Cc5ccccc5)CC4)nn23)cc1OC [Compound 154, (4-benzylpiperazin-1-yl) (7-(3,4-dimethoxyphenyl)pyrazolo [1,5-a]pyrimidin-2-yl)methanone]
≥ 2000 nM | COc1ccc(-c2ccnc3cc(C(=O)N4CCc5ccc(C(=O)O)cc5C4)nn23)cc1OC [Compound 155, 2-(7-(3,4-dimethoxyphenyl)pyrazolo[1,5-a]pyrimidine-2-carbonyl)-1,2,3,4-tetrahydroisoquinoline-7-carboxylic acid]
≥ 2000 nM | COc1ccc(-c2ccnc3cc(C(=O)Nc4ccc(C(=O)OCCCN5CCOCC5)c(Cl)c4)nn23)cc1OC [Compound 162, 3-morpholinopropyl 2-chloro-4-(7-(3,4-dimethoxyphenyl)pyrazolo [1,5-a]pyrimidine-2-carboxamido)benzoate]
< 200 nM | COc1ccc(-c2ccnc3cc(C(=O)Nc4ccc(OC(=O)[C@@H](NC(=O)OCc5ccccc5)C(C)C)cc4)nn23)cc1OC [Compound 171, 4-(7-(3,4-dimethoxyphenyl)pyrazolo[1,5-a]pyrimidine-2-carboxamido)phenyl ((benzyloxy)carbonyl)-L-valinate]
< 200 nM | COc1ccc(-c2ccnc3cc(C(=O)Nc4ccc(OC(=O)[C@@H](N)C(C)C)cc4)nn23)cc1OC [Compound 172, 4-(7-(3,4-dimethoxyphenyl)pyrazolo[1,5-a]pyrimidine-2-carboxamido) phenyl L-valinate]
< 200 nM | COc1ccc(-c2ccnc3cc(C(=O)Nc4ccc(C(=O)NCCCN5CCOCC5)cc4)nn23)cc1OC [Compound 173, 7-(3,4-dimethoxyphenyl)-N-(4-((3-morpholinopropyl)carbamoyl)phenyl)pyrazolo [1,5-a]pyrimidine-2-carboxamide]
< 200 nM | COc1ccc(-c2ccnc3cc(C(=O)Nc4ccc(C(=O)N5CCOCC5)c(F)c4)nn23)cc1OC [Compound 174, 7-(3,4-dimethoxyphenyl)-N-(3-fluoro-4-(morpholine-4-carbonyl)phenyl)pyrazolo[1,5-a]pyrimidine-2-carboxamide]

EC50 | SMILES
< 200 nM | COc1ccc(-c2ccnc3cc(C(=O)Nc4ccc(C(=O)N5CCN(C)CC5)c(F)c4)nn23)cc1OC [Compound 175, 7-(3,4-dimethoxyphenyl)-N-(3-fluoro-4-(4-methylpiperazine-1-carbonyl)phenyl)pyrazolo [1,5-a]pyrimidine-2-carboxamide]
≥ 2000 nM | COc1ccc(-c2ccnc3cc(C(=O)Nc4ccc(C(=O)NCCCN5CCN(C)CC5)cc4)nn23)cc1OC [Compound 177, 7-(3,4-dimethoxyphenyl)-N-(4-((3-(4-methylpiperazin-1-yl)propyl)carbamoyl)phenyl)pyrazolo[1,5-a]pyrimidine-2-carboxamide]
≥ 2000 nM | COc1ccc(-c2ccnc3cc(C(=O)N4CCN(C(C)C)CC4)nn23)cc1OC [Compound 179, (7-(3,4-dimethoxyphenyl)pyrazolo[1,5-a]pyrimidin-2-yl)(4-isopropylpiperazin-1-yl)methanone]
≥ 2000 nM | COc1ccc(-c2ccnc3cc(C(=O)N4CCNC(=O)C4)nn23)cc1OC [Compound 180, 4-(7-(3,4-dimethoxyphenyl)pyrazolo[1,5-a]pyrimidine-2-carbonyl) piperazin-2-one]
≥ 2000 nM | COc1ccc(-c2ccnc3cc(C(=O)N4CCN[C@@H](C)C4)nn23)cc1OC [Compound 181, (S)-(7-(3,4-dimethoxyphenyl)pyrazolo[1,5-a]pyrimidin-2-yl)(3-methylpiperazin-1-yl)methanone]
≥ 2000 nM | COc1ccc(-c2ccnc3cc(C(=O)N4CCNC(C)(C)C4)nn23)cc1OC [Compound 182, (7-(3,4-dimethoxyphenyl)pyrazolo[1,5-a]pyrimidin-2-yl)(3,3-dimethylpiperazin-1-yl)methanone]
200 to 2000 nM | COC(=O)c1ccc(N(C)C(=O)c2cc3nccc(-c4ccc(OC)c(OC)c4)n3n2)cc1 [Compound 183, methyl 4-(7-(3,4-dimethoxyphenyl)-N-methylpyrazolo[1,5-a]pyrimidine-2-carboxamido)benzoate]
200 to 2000 nM | COc1ccc(-c2ccnc3cc(C(=O)N4CCN(C5CC5)CC4)nn23)cc1OC [Compound 184, (4-cyclopropylpiperazin-1-yl)(7-(3,4-dimethoxyphenyl)pyrazolo [1,5-a]pyrimidin-2-yl)methanone]
200 to 2000 nM | COc1ccc(-c2ccnc3cc(C(=O)N4CCN(c5ncccn5)CC4)nn23)cc1OC [Compound 185, (7-(3,4-dimethoxyphenyl)pyrazolo[1,5-a]pyrimidin-2-yl)(4-(pyrimidin-2-yl)piperazin-1-yl)methanone]
≥ 2000 nM | COc1ccc(-c2ccnc3cc(C(=O)N4CC[C@@H](NC(=O)C5CCN(C)CC5)C4)nn23)cc1OC [Compound 188, (R)-N-(1-(7-(3,4-dimethoxyphenyl)pyrazolo [1,5-a]pyrimidine-2-carbonyl)pyrrolidin-3-yl)-1-methylpiperidine-4-carboxamide]
< 200 nM | COc1ccc(-c2ccnc3cc(C(=O)Nc4ccc(C(=O)OCCCN5CCN(C)CC5)cn4)nn23)cc1OC [Compound 189, 3-(4-methylpiperazin-1-yl) propyl 6-(7-(3,4-dimethoxyphenyl)pyrazolo [1,5-a]pyrimidine-2-carboxamido)nicotinate]
200 to 2000 nM | COC(=O)c1ccc(NC(=O)c2cc3nccc(-c4ccc(OC)c(OC)c4)n3n2)cn1 [Compound 190, methyl 5-(7-(3,4-dimethoxyphenyl)pyrazolo [1,5-a]pyrimidine-2-carboxamido)picolinate]
< 200 nM | COC(=O)c1ccc(NC(=O)c2cc3nccc(-c4ccc(OC)c(OC)c4)n3n2)cc1C [Compound 191, methyl 4-(7-(3,4-dimethoxyphenyl)pyrazolo [1,5-a]pyrimidine-2-carboxamido)-2-methylbenzoate]
< 200 nM | COc1ccc(-c2ccnc3cc(C(=O)Nc4ccc(N5CCN(C)CC5)cc4)nn23)cc1OC [Compound 193, 7-(3,4-dimethoxyphenyl)-N-(4-(4-methylpiperazin-1-yl)phenyl)pyrazolo[1,5-a]pyrimidine-2-carboxamide]
200 to 2000 nM | COc1ccc(-c2ccnc3cc(C(=O)Nc4ccc(C(=O)N5CCN(C)[C@@H](C)C5)cc4)nn23)cc1OC [Compound 195, (S)-7-(3,4-dimethoxyphenyl)-N-(4-(3,4-dimethylpiperazine-1-carbonyl)phenyl)pyrazolo [1,5-a]pyrimidine-2-carboxamide]
